Values of other authors as cited in US20250288673A1, “GENE THERAPY FOR THE TREATMENT OF ACTIVATED PI3KINASE DELTA SYNDROME TYPE 1 (APDS1)” (Cellectis SA, priority 2022, published 2025).

How the values were obtained:
[1] = after administration; cited from earlier work
PI3Kδ = settings: APDS1 treatment; cited from earlier work

Row | SMILES | side effects outside of the immune system [1] | effect on lymphadenopathy and immune B cell subpopulations (PI3Kδ)
1 | CO[C@H]1C[C@@H]2CC[C@@H](C)[C@@](O)(O2)C(=O)C(=O)N2CCCC[C@H]2C(=O)O[C@H]([C@H](C)C[C@@H]2CC[C@@H](O)[C@H](OC)C2)CC(=O)[C@H](C)/C=C(\C)[C@@H](O)[C@@H](OC)C(=O)[C@H](C)C[C@H](C)/C=C/C=C/C=C/1C [Rapamycin] | proteinuria was observed | 
2 | [O-][n+]1cccc(-c2nc3c(Cl)cccc3cc2[C@@H](Nc2ncnc3cccnc23)C(F)(F)F)c1 [Seletalisib] | liver toxicity | reduction in lymphadenopathy and normalization of immune B cell subpopulations
